# Data: US11497756B2, “Treatment regimen for cancers that are insensitive to BCL-2 inhibitors using the MCL-1 inhibitor alvocidib” (Sumitomo Pharma Oncology, Inc., priority 2017, dated 2022)
# pEC50: −log10 of the molar value.
# Assays:
# OCI-AML3 cells [1] = test: Sensitivity of OCI-AML3 cells to Venetoclax/ABT-199; format: cell-based; details: Homo sapiens, OCI-AML-3
# [2] = in vivo; cited from earlier work
# OPM2 cells = test: Cell viability (CellTiter-Glo) in OPM2 multiple myeloma cells; format: cell-based; details: 72 hours, compared to Venetoclax, FIG. 6
# Description: (§1) To assess the effects of alvocidib or Venetoclax treatment on multiple myeloma cells, OPM2 cells were cultured in RPMI media supplemented with 10% FBS and penicillin/streptomycin. Cell viability was assessed in treated cells using the CellTiter-Glo reagent (Promega), according to manufacturer protocol. Cells were treated in 96-well plates for 72 hours, before being analyzed in a luminescence compatible plate reader. Curve fitting and analysis was performed using Graphpad Prism software.
# [3] = system: MCL-1 expression in MV-4-11 cells; test: MCL-1 protein expression in MV-4-11 cells treated in vitro; format: cell-based
# Description: MV-4-11 cells were treated with alvocidib in vitro, harvested and analyzed to probe for changes relative to controls. Additionally, other exemplary CDK9 inhibitors (i.e., palbociclib and dinaciclib) were evaluated, along with alvocidib.
# HEL cells = test: Cell viability (CellTiter-Glo) in HEL erythroleukemia cells; format: cell-based; details: 72 hours, compared to Venetoclax, FIG. 5
# Description: as §1, with “leukemic” for “multiple myeloma”, “the erythroleukima cell line, HEL, was” for “OPM2 cells were”
# OCI-AML3 cells [4] = test: In vivo tumor growth, immune deficient mice injected with OCI-AML3 cells; details: 2.5 mg/kg intraperitoneal, once a day for 21 days, by day 21, FIG. 3
# Description: Alvocidib was used alone to test in vivo activity in OCI-AML3 cells. […] To test the in vivo activity, immune deficient mice injected with OCI-AML3 cells were treated with 2.5 mg/kg of alvocidib via intraperitoneal injection or 100 mg/kg of Venetoclax/ABT-199 per os (i.e., oral administration). Each treatment (i.e., alvocidib and Venetoclax/ABT-199) was administered once a day for 21 days.
# [5] = system: MCL-1 expression in OCI-AML3 cells; test: MCL-1 expression in OCI-AML3 cells in vitro; format: cell-based; details: multiple time points after treatment, FIG. 4
# Text: MCL-1 expression was decreased in OCI-AML3 cells at multiple time points following treatment with alvocidib (FIG. 4).
compound,measurement,setting,value
CC1(C)CCC(CN2CCN(c3ccc(C(=O)NS(=O)(=O)c4ccc(NCC5CCOCC5)c([N+](=O)[O-])c4)c(Oc4cnc5[nH]ccc5c4)c3)CC2)=C(c2ccc(Cl)cc2)C1 [Venetoclax],pEC50,OCI-AML3 cells [1],5.63
CC1(C)CCC(c2ccc(Cl)cc2)=C(CN2CCN(c3ccc(C(=O)NS(=O)(=O)c4ccc(N[C@H](CCN5CCOCC5)CSc5ccccc5)c(S(=O)(=O)C(F)(F)F)c4)cc3)CC2)C1 [navitoclax],toxicity,[2],toxic due to thrombocytopenia
CN1CC[C@H](c2c(O)cc(O)c3c(=O)cc(-c4ccccc4Cl)oc23)[C@H](O)C1 [alvocidib],cell viability,OPM2 cells,inhibition of cell viability
same,MCL-1 expression,"[3]; 24 hour treatment, FIG. 2",decreased MCL-1 expression
same,impact on MCL-1 protein levels compared with the other CDK9 inhibitors,"[3]; 24 hour treatment, FIG. 2",strongest impact on MCL-1 protein levels
same,MCL-1 expression relative to controls,"[3]; alvocidib 0-8 μM, FIG. 1",decreases MCL-1 expression in MV-4-11 in a dose dependent manner
same,cell viability,HEL cells,inhibition of cell viability
same,reduction in tumor growth,OCI-AML3 cells [4],50%
same,MCL-1 expression,[5],decreased
